Measured values taken from ChEMBL document CHEMBL4483862, “Open-source discovery of chemical leads for next-generation chemoprotective antimalarials” (2018).

Test system: Plasmodium berghei
Assay: Luciferase/luciferin-expressing antifolate-resistant parasites were used to infect a culture of HepG2 cells that were pre-incubated with compounds. Infected hepatocytes emit light due to the luciferase reaction. Assay results are presented as the percent inhibition of light emission compared to control. […]
Assay type: functional
Settings: sporozoite; for IC90: read-out: LUCIFERASE INFECTION ASSAY - IC90
[1] = read-out: LUCIFERASE INFECTION ASSAY - IC50

Compound | IC90 | IC50 [1] | further results
CO/N=C/NC(=O)/C(C#N)=C/N(C)C | > 16.8 µM |  | IC50 (PBLUC_HILL_SLOPE 13.3, PBLUC_R_SQUARED 0.155, read-out: LUCIFERASE INFECTION ASSAY - IC50): 14.6 µM
O=c1c2ccccc2sc2nc(C3CCCCC3)n(Cc3ccco3)c(=O)c12 | > 8.41 µM |  | IC50 (PBLUC_HILL_SLOPE 3.17, PBLUC_R_SQUARED 0.712, read-out: LUCIFERASE INFECTION ASSAY - IC50): 4.57 µM
COc1ccc2nc(N(Cc3ccccc3)C(=O)C3Cc4ccccc4C(=O)O3)sc2c1 (stereo not given) | > 10 µM | > 10 µM | 
COc1ccc(-c2cnc3cnc(-c4ccc(N5CCN(C)CC5)nc4)cn23)cc1 | > 8.24 µM |  | IC50 (PBLUC_HILL_SLOPE 3.44, PBLUC_R_SQUARED 0.167, read-out: LUCIFERASE INFECTION ASSAY - IC50): 6.29 µM
COc1ccc(-c2cnc3cnc(-c4ccccc4)cn23)cc1 | 3.33 µM |  | IC50 (HEPG2TOX_HILL_SLOPE 1.56, HEPG2TOX_R_SQUARED 0.972, PBLUC_HILL_SLOPE 1.73, PBLUC_R_SQUARED 0.792, read-out: LUCIFERASE INFECTION ASSAY - IC50): 0.932 µM
CSc1sc(C(=O)N2CCOCC2)c2c1S(=O)(=O)N(C)c1ccccc1-2 | > 8.04 µM | > 8.04 µM | 
Cc1sc2[nH]c(CSCC(=O)c3cc(C)n(-c4ccc(Br)cc4)c3C)nc(=O)c2c1C | > 10 µM |  | IC50 (PBLUC_HILL_SLOPE 3.74, PBLUC_R_SQUARED 0.361, read-out: LUCIFERASE INFECTION ASSAY - IC50): 6.79 µM
CC(C(=O)NC(C)(C)C)N1CCN(CC(=O)Nc2ccc(F)cc2)CC1 (stereo not given) | > 10 µM | > 10 µM | 
COc1ccc(N2C(=N)C(c3nc4ccccc4s3)C(=O)C2c2ccccc2)cc1 (stereo not given) | 4.06 µM |  | IC50 (PBLUC_HILL_SLOPE 428, PBLUC_R_SQUARED 0.387, read-out: LUCIFERASE INFECTION ASSAY - IC50): 4.04 µM
CCNC(=O)c1nn(Cc2cccc(OC)c2)c2c1CN(CCC(C)c1ccc(C)o1)CC2 (stereo not given) | > 7.32 µM |  | IC50 (PBLUC_HILL_SLOPE 5.04, PBLUC_R_SQUARED 0.686, read-out: LUCIFERASE INFECTION ASSAY - IC50): 6.68 µM
Cc1cc2nc(NC3=NCN(Cc4cccnc4)CN3)nc(C)c2cc1C | > 9.13 µM | > 9.13 µM | 
O=C(Cn1cc(C(F)(F)F)ccc1=O)N/N=C/c1c2ccccc2cc2ccccc12 | > 10 µM |  | IC50 (PBLUC_HILL_SLOPE 2.42, PBLUC_R_SQUARED 0.423, read-out: LUCIFERASE INFECTION ASSAY - IC50): 5.16 µM
Oc1c(C(c2ccc(Cl)cc2)c2cc(Cl)c3cccnc3c2O)cc(Cl)c2cccnc12 | 2.32 µM |  | IC50 (FFLUC_HILL_SLOPE 4.28, FFLUC_R_SQUARED 0.979, HEPG2TOX_HILL_SLOPE 0.496, HEPG2TOX_R_SQUARED 0.799, PBLUC_HILL_SLOPE 1.82, PBLUC_R_SQUARED 0.848, read-out: LUCIFERASE INFECTION ASSAY - IC50): 0.693 µM
N#Cc1ccnc(N2CCN(c3ncnc4scc(-c5ccccc5)c34)CC2)c1 | > 10 µM | > 10 µM | 
CC(C)Cc1ccc(C(C)c2nn3c(-c4ccco4)nnc3s2)cc1 (stereo not given) | 0.257 µM |  | IC50 (HEPG2TOX_HILL_SLOPE 0.343, HEPG2TOX_R_SQUARED 0.467, PBLUC_HILL_SLOPE 2.04, PBLUC_R_SQUARED 0.902, read-out: LUCIFERASE INFECTION ASSAY - IC50): 0.0873 µM
O=C(NCCO)c1cccc(-c2ccc3ncc(-c4ccc5c(c4)OCO5)n3n2)c1 | 3.86 µM |  | IC50 (HEPG2TOX_HILL_SLOPE 1.62, HEPG2TOX_R_SQUARED 0.792, PBLUC_HILL_SLOPE 12.2, PBLUC_R_SQUARED 0.362, read-out: LUCIFERASE INFECTION ASSAY - IC50): 3.22 µM
O=C(/C=C/c1ccccc1OC(F)F)N(Cc1ccccc1)c1nnc(SC(F)F)s1 | 3.6 µM |  | IC50 (HEPG2TOX_HILL_SLOPE 8.23, HEPG2TOX_R_SQUARED 0.589, PBLUC_HILL_SLOPE 26.6, PBLUC_R_SQUARED 0.272, read-out: LUCIFERASE INFECTION ASSAY - IC50): 3.31 µM
CCOC(=O)c1sc(N(NC(=O)c2cc(C(F)(F)F)cc(C(F)(F)F)c2)C(=O)c2cc(C(F)(F)F)cc(C(F)(F)F)c2)c2c1CC(C)(C)CC2=O | > 4.33 µM | > 4.33 µM | 
Cc1noc(C)c1C(=O)NNC(=O)c1ccc(Cl)cc1 | > 11.2 µM |  | IC50 (PBLUC_HILL_SLOPE 16.2, PBLUC_R_SQUARED 0.359, read-out: LUCIFERASE INFECTION ASSAY - IC50): 11 µM
O=C(CCN1CCN(c2ccccc2)CC1)NNC(=O)c1ccc(C(F)(F)F)cn1 | 7.86 µM |  | IC50 (HEPG2TOX_HILL_SLOPE 7.92, HEPG2TOX_R_SQUARED 0.92, PBLUC_HILL_SLOPE 7.4, PBLUC_R_SQUARED 0.199, read-out: LUCIFERASE INFECTION ASSAY - IC50): 5.84 µM
CNC(=O)c1cccc(NC(=O)c2cc(Cl)c[nH]2)c1 | > 10 µM | > 10 µM | 
COc1ccc(-n2ccnc2SCc2nc(N)c3ccccc3n2)cc1 | > 10 µM | > 10 µM | 
O=C(Cc1cc(Cl)c2c(c1)OCCCO2)NCc1ccco1 | > 10 µM | 6.35 µM | 

Compound | IC90 | IC50 [1] | further results
CCN(CC)S(=O)(=O)c1ccc(C(C)NC(=O)c2nn(CC)c(=O)c3ccccc23)cc1 (stereo not given) | 4.01 µM |  | IC50 (PBLUC_HILL_SLOPE 3.22, PBLUC_R_SQUARED 0.606, read-out: LUCIFERASE INFECTION ASSAY - IC50): 2.02 µM
N#C/C(=C\Nc1cccc([N+](=O)[O-])c1)S(=O)(=O)c1ccc(Cl)cc1 | > 9.07 µM | > 9.07 µM | 
CCc1cccc(NC(=O)c2cc(C3CC3)nc3c2c(C)nn3C)c1 | > 10 µM | > 10 µM | 
COc1ccc(Cl)cc1NC(=O)C(C)NCC(c1ccccc1)c1c[nH]c2ccccc12 (stereo not given) | > 10 µM | 6.47 µM | 
FC(F)(F)Oc1ccc(N=C(S)Nc2ccc(OC(F)(F)F)cc2)cc1 | > 8.33 µM | > 8.33 µM | 
Cc1ccnc(-n2c(C)c(C)c3c2ncn2nc(Cc4ccccc4)nc32)c1 | > 8.96 µM | > 8.96 µM | 
Cc1cc(C)cc(NC(=O)c2cc(C(C)(C)C)n(-c3ccccc3)c2C)c1 | 5.09 µM |  | IC50 (PBLUC_HILL_SLOPE 2.05, PBLUC_R_SQUARED 0.76, read-out: LUCIFERASE INFECTION ASSAY - IC50): 1.74 µM
CC(C)c1ccc(NC(=O)Nc2ccc3nc(-c4ccccn4)nn3c2)cc1 | 4.2 µM |  | IC50 (HEPG2TOX_HILL_SLOPE 13, HEPG2TOX_R_SQUARED 0.696, PBLUC_HILL_SLOPE 14.3, PBLUC_R_SQUARED 0.36, read-out: LUCIFERASE INFECTION ASSAY - IC50): 3.6 µM
COc1cccc(CN2CCN3C=C(C(=O)Nc4ccc(OCc5ccccc5)cc4)OC3=NC2=O)c1 | > 10 µM |  | IC50 (HEPG2TOX_HILL_SLOPE 3.22, HEPG2TOX_R_SQUARED 0.229, read-out: LUCIFERASE INFECTION ASSAY - IC50): > 10 µM
CCCCCCCCCCCc1nnc(SCc2ccc(C)cc2)n1-c1ccccc1C(F)(F)F | > 6.55 µM | > 6.55 µM | 
O=C(COC(=O)c1cc(-c2ccccc2)c(N2CCOCC2)s1)c1ccc2c(c1)OCCO2 | > 10 µM | > 10 µM | 
COc1cc(OC)c(NC(=O)CN2CCC(c3c[nH]c4ccccc34)CC2)cc1Cl | > 10 µM |  | IC50 (HEPG2TOX_HILL_SLOPE 7.32, HEPG2TOX_R_SQUARED 0.598, PBLUC_HILL_SLOPE 4.32, PBLUC_R_SQUARED 0.304, read-out: LUCIFERASE INFECTION ASSAY - IC50): 8.18 µM
CCOC(=O)c1sc(SCc2ccccc2)c(S(=O)(=O)C(C)C)c1N | > 8.26 µM | > 8.26 µM | 
Nc1ncnc(Sc2nnnn2-c2ccccc2)c1[N+](=O)[O-] | > 10 µM |  | IC50 (HEPG2TOX_HILL_SLOPE 9.17, HEPG2TOX_R_SQUARED 0.951, read-out: LUCIFERASE INFECTION ASSAY - IC50): > 10 µM
CC(C)N(c1ccccc1)c1ccc(NC(=O)COC(=O)c2ccc(Cl)c(S(=O)(=O)N(Cc3ccccc3)c3ccc(Cl)cc3)c2)cc1 | > 10 µM |  | IC50 (FFLUC_HILL_SLOPE 30.3, FFLUC_R_SQUARED 0.617, PBLUC_HILL_SLOPE 4.64, PBLUC_R_SQUARED 0.334, read-out: LUCIFERASE INFECTION ASSAY - IC50): 9.19 µM
CCCNC(=O)c1c(NC(=O)c2ccccc2)nc2ccc(C)cn12 | 7.77 µM |  | IC50 (HEPG2TOX_HILL_SLOPE 1.15, HEPG2TOX_R_SQUARED 0.736, PBLUC_HILL_SLOPE 3.57, PBLUC_R_SQUARED 0.289, read-out: LUCIFERASE INFECTION ASSAY - IC50): 4.2 µM
Cc1cc(C)nc(-n2nc(Nc3ccccc3)cc2Nc2ccccc2)n1 | > 10 µM |  | IC50 (FFLUC_HILL_SLOPE 18.6, FFLUC_R_SQUARED 0.489, PBLUC_HILL_SLOPE 15, PBLUC_R_SQUARED 0.577, read-out: LUCIFERASE INFECTION ASSAY - IC50): 9.07 µM
CC(C)(C)c1ccc(CSc2nnc(-c3ccc(C(C)(C)C)cc3)n2Cc2ccco2)cc1 | > 7.18 µM |  | IC50 (PBLUC_HILL_SLOPE 3.03, PBLUC_R_SQUARED 0.36, read-out: LUCIFERASE INFECTION ASSAY - IC50): 5.09 µM
COc1cc(NC(=O)N2Cc3cnc(Nc4ccc(OCc5ccccc5)cc4)nc3C2)cc(OC)c1OC | > 6.25 µM | > 6.25 µM | 
OCc1cccc(-c2cnc3cnc(-c4ccc(CNc5ccccc5)cc4)cn23)c1 | > 8.12 µM |  | IC50 (FFLUC_HILL_SLOPE 0.18, FFLUC_R_SQUARED 0.146, PBLUC_HILL_SLOPE 3.27, PBLUC_R_SQUARED 0.516, read-out: LUCIFERASE INFECTION ASSAY - IC50): 6.25 µM
c1ccc(CCCNc2nnnn2-c2ccccc2)cc1 | > 10 µM |  | IC50 (PBLUC_HILL_SLOPE 1.25, PBLUC_R_SQUARED 0.199, read-out: LUCIFERASE INFECTION ASSAY - IC50): 6.08 µM
Cc1ccc(NC(=O)c2cccn(Cc3ccc(C(F)(F)F)cc3)c2=O)cc1C | > 8.24 µM | > 8.24 µM | 
